According to patent US20080075695A1, “COMBINATION THERAPY METHOD FOR TREATING HEPATITIS C VIRUS INFECTION AND PHARMACEUTICAL COMPOSITIONS FOR USE THEREIN” (priority 2006, published 2008):

Key:
[1] = molecular target: T1, HCV NS5B protein (genotype 1b, BB7) (Hepatitis C virus genotype 1b, UniProt Q9WMX2); assay: Inhibition of viral RNA-dependent RNA polymerase (RdRp); type: biochemical; details: purified HCV NS5B, C-terminal 21 amino acids removed
T1 construct: of which the carboxyl terminal 21 amino acids were removed to enhance its solubility; made in house; host or cells: E. coli
From the text: The HCV NS5B-directed RdRp activity was established and characterized in a standard in vitro biochemical assay using a purified HCV NS5B protein derived from the consensus sequence of a patient infected with HCV genotype 1b virus (BB7). (See Blight K J et al., Science. 2000, 290:1972-4). The NS5B consensus sequence was cloned and expressed in E. coli as a histidine tagged ([…]) fusion protein, of which the carboxyl terminal 21 amino acids were removed to enhance its solubility.
In addition to evaluating its activity in the replicon assay, as described above, the BZF of Example 1 was also evaluated for antiviral activity using this assay.

HCV = assay: Phase 1b clinical trial (MAD study), plasma HCV RNA; type: in vivo, human; details: for MEAN Δ change from baseline (log HCV RNA level): on-therapy analysis
From the text: A 14 day randomized, double-blind, placebo-controlled, sequential-group study of multiple ascending doses (MAD) included subjects with chronic HCV infection who were naïve to treatment. Subjects were enrolled in sequential, ascending dose cohorts with a target of 16 subjects (12 subjects receiving the BZF and 4 receiving placebo in each cohort). The first cohorts assessed the effect of the BZF as monotherapy compared to placebo. Subsequent cohorts were comprised of subjects who received pegylated interferon alfa-2b (PEG-Intron; 1.5 μg/kg/dose) administered subcutaneously on days −1 and 7 in combination with either placebo or the BZF administered orally (100 mg, 250 mg, 500 mg or 1000 mg every 12 hours, in combinations of 25 mg or 200 mg capsules) from days 1 to 14. […] The mean viral load for each treatment group at study entry was >6.0 log 10 UI/ml HCV RNA.

[2] = Day 14, BZF 100 mg, all genotypes
[3] = Day 14, BZF 250 mg, all genotypes
[4] = Day 14, BZF 500 mg, all genotypes
[5] = Day 14, BZF 1000 mg, all genotypes

CNC(=O)c1c(-c2ccc(F)cc2)oc2cc(N(CCO)S(C)(=O)=O)c(C3CC3)cc12 [BZF, 5-cyclopropyl-2-(4-fluoro-phenyl)-6-[(2-hydroxy-ethyl)-methanesulfonyl-amino]-benzofuran-3-carboxylic acid methylamide]
IC50 [1]: < 500 nM | MEAN Δ change from baseline (log HCV RNA level) (HCV; Day 4, BZF 500 mg every 12 hours, all genotypes): −1.43 log | MEAN Δ change from baseline (log HCV RNA level) (HCV; Day 7, BZF 500 mg every 12 hours, all genotypes): −1.30 log | % Subjects BQL (below quantification limits, <50 IU/mL) (HCV; [2]): 0% | % Subjects with ≧1.5 log ↓ in log10 HCV RNA (HCV; [2]): 2 (17%) | % Subjects with ≧2 log ↓ in log10 HCV RNA (HCV; [2]): 0% | % Subjects with ≧3 log ↓ in log10 HCV RNA (HCV; [2]): 0% | % Subjects BQL (below quantification limits, <50 IU/mL) (HCV; [3]): 0% | % Subjects with ≧1.5 log ↓ in log10 HCV RNA (HCV; [3]): 0% | % Subjects with ≧2 log ↓ in log10 HCV RNA (HCV; [3]): 0% | % Subjects with ≧3 log ↓ in log10 HCV RNA (HCV; [3]): 0% | MEAN Δ change from baseline (log HCV RNA level) (HCV; Day 14, BZF 500 mg every 12 hours, all genotypes): −0.64 log | % Subjects BQL (below quantification limits, <50 IU/mL) (HCV; [4]): 0% | % Subjects with ≧1.5 log ↓ in log10 HCV RNA (HCV; [4]): 1 (8%) | % Subjects with ≧2 log ↓ in log10 HCV RNA (HCV; [4]): 1 (8%) | % Subjects with ≧3 log ↓ in log10 HCV RNA (HCV; [4]): 0% | % Subjects BQL (below quantification limits, <50 IU/mL) (HCV; Day 14, BZF 500 mg, genotype 1): 0% | % Subjects with ≧1.5 log ↓ in log10 HCV RNA (HCV; Day 14, BZF 500 mg, genotype 1): 1 (13%) | % Subjects with ≧2 log ↓ in log10 HCV RNA (HCV; Day 14, BZF 500 mg, genotype 1): 1 (13%) | % Subjects with ≧3 log ↓ in log10 HCV RNA (HCV; Day 14, BZF 500 mg, genotype 1): 0% | % Subjects BQL (below quantification limits, <50 IU/mL) (HCV; [5]): 0% | % Subjects with ≧1.5 log ↓ in log10 HCV RNA (HCV; [5]): 2 (17%) | % Subjects with ≧2 log ↓ in log10 HCV RNA (HCV; [5]): 2 (17%) | % Subjects with ≧3 log ↓ in log10 HCV RNA (HCV; [5]): 1 (8%)
